{"source": "paper PMC10998878", "about": "“Inhibition of acyl-CoA binding protein (ACBP) by means of a GABAARγ2-derived peptide” (Cell Death & Disease, 2024)", "key": {"[1]": {"system": "liver autophagy, C57BL/6 mice", "assay": "Liver autophagy activation in vivo (LC3 lipidation)", "set-up": "species or system mouse", "details": "C57BL/6 male mice, peptide 5 mg/kg i.v. 4 h and 30 min before sacrifice, with or without leupeptin 30 mg/kg i.p., LC3 immunoblot, n = 5", "method": "Ten-week-old C57BL/6 male mice were injected with GABAARγ2 peptides (5 mg/kg, i.v., dissolved in PBS) 4 h and 30 min before sacrifice. For inhibition of the autophagy flux, leupeptin (Leu, 30 mg/kg B.W., dissolved in PBS) was injected 2 h before sacrifice via an intraperitoneal (i.p.) injection. Control animals were i.v. injected with the vehicle (DMSO, 0.01%) and i.p. injected with PBS. All animals were sacrificed, and livers were snap-frozen in liquid nitrogen and stored at −80 °C.\nProtein lysates were prepared from liver, epididymal white adipose tissue (eWAT), brown adipose tissue (BAT), muscle, heart or Hep55.1c cells. Immunoblot analysis was performed for GABAARγ2 (Abcam #ab87328), mouse ACBP/DBI (Abcam, #ab231910), Human ACBP (Santa-Cruz #sc-376853), MAP1LC3B (#2775, Cell Signaling Technologies), and β-actin (Abcam, #ab49900), as previously described.."}, "[2]": {"system": "GFP-LC3-expressing hepatocytes", "assay": "Hepatocyte autophagy activation (GFP-LC3 dots)", "assay_type": "cell-based", "details": "GFP-LC3 mouse hepatocytes, peptide 10 µg/mL, with leupeptin", "method": "[…] Leupeptin (100 μM) was added 4 h before fixation. Cells were stained with Hoechst 33342 solution (Thermo Scientific™, #62249, 1 µg/mL) and fixed with 4% paraformaldehyde (PFA) solution. Both blue (Hoechst-derived) and green (GFP-LC3-derived) fluorescence were imaged using a Zeiss LSM 710 confocal microscope. Images were analyzed using R software.\nHepatocytes were isolated from 4 transgenic mice expressing microtubule- associated proteins 1A/1B light chain 3B (hereafter referred to as LC3) fused to green fluorescent protein (GFP) (resulting fusion protein: LC3-GFP) under a ubiquitous promoter. Such oligo- or monocellular hepatocyte suspensions were cultured in the continuous presence of leupeptin at 37°C in the absence (A) or presence (B) of the GABAARγ2- EP- WT […]\nCells were counterstained with Hoechst\n33342 and representative fluorescence images are shown (bar size: 10 µm). The number of LC3-GFP+ dots per cells (defined as an area of interest around the 1 or 2 Hoechst 33342- positive nuclei per cell) were determined by image analysis and plotted in C .\nResults are shown as means ± standards of the mean, and statistics were calculated with […]"}, "[3]": {"molecular_target": "T1, recombinant murine ACBP/DBI (Mus musculus, UniProt P31786)", "T1 construct": "biotin (biotinylated); purchased Institute of Psychiatry and Neuroscience of Paris, France", "T1 sequence (P31786 1-87)": "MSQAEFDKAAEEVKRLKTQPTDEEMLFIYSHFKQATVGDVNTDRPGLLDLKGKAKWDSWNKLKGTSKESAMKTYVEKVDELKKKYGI", "assay": "Surface plasmon resonance (Biacore 2000) real time interaction analysis", "assay_type": "binding", "details": "for interaction with recombinant ACBP/DBI, in words: surface plasmon resonance, HBS-EP pH 7.4, 25 °C, 10 µM and 100 µM peptide", "method": "Kinetics of interaction of recombinant murine ACBP/DBI (Institute of Psychiatry and Neuroscience of Paris, France) with GABAARγ2 -derived eicosapeptide or its mutated derivative (synthesized by Biosynth ltd) was analyzed by surface plasmon resonance-based biosensor system – Biacore 2000 (Cytiva Life Sciences, Biacore, Uppsala, Sweden). SA sensor chip (Cytiva Life Sciences, Biacore) was activated by three consequent injections of 1 M NaCl, 0.05 M NaOH solution. After washing the sensor chip surface, biotinylated ACBP/DBI was immobilized on it. ACBP was diluted in HBS-EP buffer (10 mM HEPES […], 150 mM NaCl, 3 mM EDTA, and 0.005% Tween-20) at final concentration of 10 µg/mL and injected for 5 min contact time. The achieved immobilization density of ACBP was 1600 resonance units.\nAll analyses were performed in HBS-EP buffer (0.01 M HEPES pH 7.4, 0.15 M NaCl, 3 mM EDTA, 0.005% v/v Surfactant P20; 0.22 µm filtered and degassed). The system was run at flow rate of 30 μL/min. The temperature on chip surface was set to 25 °C. GABAARγ2-derived eicosapeptide or its mutated derivative (both stocked in DMSO at 1 mg/mL) were diluted in HBS-EP to 10 µM and 100 µM. The peptides were injected over immobilized ACBP/DBI and a control surface (streptavidin alone). The association and dissociation phases of the interaction were followed for 4 and 5 min, respectively. The interaction of peptides with ACBP/DBI was assessed by monitoring the dissociation from the immobilized protein. For visualization of the binding response Graph Pad Prism software was used."}, "[4]": {"details": "listed as GABAARγ2-derived eicosapeptide"}}, "note": "“Also recorded” adds a separate entry of the source."}
{"sequence": "INMEYTIDIFFAQTWYDRRL [GABAARγ2-EP-WT]", "values": [{"measurement": "activation of autophagy in the liver", "setting": "[1]", "result": "activation of autophagy in the liver was induced"}, {"measurement": "activation of autophagy in the liver", "setting": "[1]; [4]", "result": "induced autophagy in the liver"}, {"measurement": "capacity to enhance autophagic flux", "setting": "[2]", "result": "enhance autophagic flux"}, {"measurement": "number of LC3-GFP dots per cell", "setting": "[2]; confocal microscopy", "result": "increased the number of LC3-GFP dots"}, {"measurement": "association with immobilized ACBP/DBI (SPR)", "setting": "[3]; biotinylated recombinant ACBP/DBI on SA chip (1600 RU), peptide 10 µM and 100 µM in HBS-EP, pH 7.4, 25 °C, 30 μL/min, association 4 min, WT vs F77I", "result": "associated more rapidly"}, {"measurement": "dissociation from immobilized ACBP/DBI (SPR)", "setting": "[3]; biotinylated recombinant ACBP/DBI on SA chip (1600 RU), peptide 10 µM and 100 µM in HBS-EP, pH 7.4, 25 °C, 30 μL/min, dissociation 5 min, WT vs F77I", "result": "dissociated more slowly from ACBP/DBI than GABAARγ2-EP-F77I"}, {"measurement": "interaction with recombinant ACBP/DBI, in words", "setting": "[3]", "result": "efficiently interacts with native and recombinant ACBP/DBI; also recorded: able to interact with ACBP/DBI"}, {"measurement": "interaction with recombinant ACBP/DBI, in words", "setting": "[3]; [4]", "result": "validated the interaction"}]}
